11 molecules from patent US10510981B2, “Organic light-emitting diode display panel, fabrication method, and electronic apparatus” (Shanghai Tianma AM-OLED Co., Ltd., priority 2017, dated 2019) can be followed below.

≈ marks a conversion by molar mass, not a printed value.

The series is described as follows: solubility of the compound adopted in the capping layer. It counts as physicochemical. The conditions noted are these: thermodynamic from solid, saturated solution, liquid chromatography against a standard curve, solvent not given. The source says: The test methods may include: • (1) measuring the solubility of the compound adopted in the capping layer, where the test method may include: testing samples with different concentrations of the compound by Ultimate3000 liquid chromatographic instrument manufactured by company “waters”, plotting a standard curve, then testing a saturated solution, and calculating the solubility by combining the standard curve; • (2) measuring light extraction efficiency by an UVISEB ellipsometer from HORIBA (China) Trading Co., Ltd.; and • (3) measuring lifetime by a LTS-1004DC life tester with from supplier ENC.
Turning to `C#Cc1ccc(N(c2ccc(CCCC)cc2)c2ccc(-c3ccc(N(c4ccc(CCCC)cc4)c4ccc(C#C)c(C)c4)c(C)c3)cc2C)cc1C`, the concentration in solution (solubility) was 298 µg/mL (≈ 423 µM).
Under `Cc1ccc(N(c2ccc(C(C)C)cc2)c2ccc(-c3ccc(N(c4ccc(C(C)C)cc4)c4ccc(C)cc4C)c(C)c3)cc2C)c(C)c1` stands 205 µg/mL (≈ 312 µM).
`Cc1cc(-c2ccc(N(c3ccc(-c4ccc(-c5ccccc5)cc4)cc3)c3ccc(-c4ccc(-c5ccccc5)cc4)cc3)c(C)c2)ccc1N(c1ccc(-c2ccc(-c3ccccc3)cc2)cc1)c1ccc(-c2ccc(-c3ccccc3)cc2)cc1` [reference compound]: the solubility (as a rule, the dissolved amount per volume that the medium holds) was 430 µg/mL (≈ 382 µM).
Regarding `CCCCc1ccc(N(c2ccc(-c3ccc(N(c4ccc(C)c(C)c4)c4ccc(CCCC)c(C)c4)cc3)cc2)c2ccc(C)c(C)c2)cc1C`, the solubility is 340 µg/mL (≈ 496 µM).
With `Cc1cc(-c2ccc(N(c3ccc(-c4ccccc4)cc3)c3ccc(-c4ccccc4)cc3)c(C)c2)ccc1N(c1ccc(-c2ccccc2)cc1)c1ccc(-c2ccccc2)cc1`, the concentration in solution (solubility) came to 211 µg/mL (≈ 257 µM).
For the molecule `CCCCc1ccc(N(c2ccc(C)c(C)c2)c2ccc(-c3ccc(N(c4ccc(CCCC)cc4)c4ccc(C)c(C)c4)c(C)c3)cc2C)cc1`, the solubility worked out at 210 µg/mL (≈ 307 µM).
With `CCc1ccc(-c2ccc(N(c3ccc(-c4ccc(CC)cc4)cc3)c3ccc(-c4ccc(N(c5ccc(-c6ccc(CC)cc6)cc5)c5ccc(-c6ccc(CC)cc6)cc5)c(C)c4)cc3C)cc2)cc1`, the solubility amounted to 210 µg/mL (≈ 225 µM).
`C=Cc1ccc(N(c2ccc(CCCC)cc2)c2ccc(-c3ccc(N(c4ccc(CCCC)cc4)c4ccc(C=C)c(C)c4)c(C)c3)cc2C)cc1C` registered a solubility of 300 µg/mL (≈ 423 µM).
As for `CCCCc1ccc(N(c2ccc(C)cc2C)c2ccc(-c3ccc(N(c4ccc(CCCC)cc4)c4ccc(C)cc4C)c(C)c3)cc2C)cc1`, the solubility turned out to be 312 µg/mL (≈ 455 µM).
Molecule `Cc1ccc(N(c2ccc(-c3ccc(N(c4ccc(C(C)C)cc4)c4ccc(C)cc4C)cc3)cc2)c2ccc(C(C)C)cc2)c(C)c1` came in with a solubility of 309 µg/mL (≈ 491 µM). The solubility values of the last two molecules are within 1.5-fold of each other.
The figure for `CCCCc1ccc(N(c2ccc(-c3ccc(N(c4ccc(CCCC)cc4)C4CCCCC4)c(C)c3)cc2C)C2CCCCC2)cc1` [reference compound] is 566 µg/mL (≈ 883 µM).
